Assay results: patent US11229628B2, “TRPA1 and TRPV4 inhibitors and methods of using the same for organ-specific inflammation and itch” (Duke University, priority 2015, dated 2022)

How the values were obtained:
TRPV4 = TRPV4 (Homo sapiens, UniProt Q9HBA0); experiment: TRPV4-mediated calcium influx in N2a cells with targeted expression of human TRPV4 (Ca2+ imaging, activation with 10 nM GSK101); assay type: cell-based; set-up: expressed in transfected cells; host or cells: N2a cells; conditions: 2.5 μM inhibitor, pre-incubation 10 min
Protocol: Compounds (GSK205, 16-12, 16-13, 16-14, 16-18, 16-8, and 16-8/18hy) were tested for their effect on TRPV4-mediated calcium influx in N2a cultured cells with targeted expression of human TRPV4. Ca2+ imaging was performed according to Li et al. (Environ. Health Perspect. 2011, 119, 784-93) and Moore et al. (Proc. Natl. Acad. Sci. U.S.A. 2013, 110, E3225-E3234). Briefly, Ca2+ imaging of primary mouse epidermal keratinocytes (1° MK) in response to chemical activation of TRPV4 was conducted after loading with 2 μM fura2-AM, following a ratiometric Ca2+-imaging protocol with 340/380 nm blue light for dual excitation. Ratios of emissions were acquired at 0.5 Hz. ΔR/R0 was determined as the fraction of the increase of a given ratio over baseline ratio, divided by baseline ratio. For stimulation of cells with UVB, where fura-2 was not suitable because of the proximity of stimulation with 340/380 nm vs. 295 nm, 2 μM fluo4-AM was used instead. Ca2+ imaging was carried out at 488 nm excitation, acquisition of emissions at 0.5 Hz, expressed as ΔF/F0. TRPV4 was activated with 10 nM GSK101, a specific activator, which had no effect on RFP-transfected cells. Each of the […] compounds were added to a concentration of 2.5 μM, and its effect was observed.
The ordinate is the peak calcium concentration in the cells (average n>75 cells) in nM.

human TRPA1 = biological target: T1, human TRPA1 (Homo sapiens, UniProt O75762); experiment: Ca2+ transient in N2a cells transfected with human TRPA1, evoked by AITC; assay type: cell-based; conditions: for inhibitory activity against human TRPA1: 5 μM compound
T1 construct: expressed in transfected cells; host or cells: N2a cells
Protocol: Compounds were tested for their effect on TRPA1. N2a permanent cells were transfected with human TRPA1 cDNA, using a pcDNA3.1 expression plasmid. They were co-transfected with eGFP-expressing plasmid, or, for control, with eGFP plasmid only.
Cells were then pre-exposed to 5 μM of compounds 16-8 and 16-8/18hy for 10 min.
Averaged Ca2+ signal is shown from >75 cells. The resulting Ca2+ transient evoked by 60 μM AITC was reduced by >80% upon administration of compound 16-8 or 16-8/18hy at 5 μM, indicating appreciable TRPA1-inhibitory effects of both compounds.

BL6 mice = experiment: Formalin-evoked nocifensive behavior, whiskerpad injection pain model in mice; assay type: in vivo, mouse; conditions: for formalin-evoked nocifensive behavior, time course / formalin-evoked nocifensive behavior at the 45-min time-point: 0.5 mM/10 μL whiskerpad; for formalin-evoked nocifensive behavior, quantitation (in particular second phase): pre-injected into whiskerpad at 0.5 mM/10 μL, 15 min before formalin
Protocol: Compounds were tested for their effect in reducing pain using an in vivo pain model in mice. For mouse formalin-evoked irritant behavior measurements, mice were well-fed, well-rested, and tested at the same time of day, at the same time-point of their circadian rhythm. They were allowed to acclimate to a plexiglas chamber for at least 30 min before testing, and received 10 μL subcutaneous injection of 4% of formalin (diluted from an aqueous solution of commercial 37% formaldehyde with normal saline (NS)) through a 30-gauge needle into the right whiskerpad, as further detailed in Luccarini et al. (J. Pain, 2006, 7, 908-914). Normal saline was used as control injection. After injection, mice were immediately placed back into the chamber and the rubbing behavior was recorded by a private consumer-type video-camera for a 45 min observation period. The recording time was divided into 9 blocks of 5 min, and a nociceptive score was determined per block by measuring the time that the animals spent rubbing the injected area predominantly with the ipsilateral fore-paw and rarely with hind-paw. This rubbing behavior with fore-paw is evoked by pain, which is distinct from itch behavior. Behavioral analysis was conducted by observers blinded to treatment.
To investigate the effects of the specific compounds GSK205, 16-8, and 16-8/18hy on formalin-induced nociceptive behavior, mice received a single subcutaneous injection of the compounds into the whiskerpad (10 μL, dissolved in 4% DMSO) 15 min before formalin injection. Control animals received the same volume of NS, 4% DMSO.
Note the biphasic response and “clean” controls. […] This concentration had no effect on residual nocifensive behavior in Trpv4−/− mice. […] Also note that none of the compounds influenced the first phase, which was caused by the direct irritation that formalin causes on peripheral whisker-pad nerve endings.

mice = experiment: UVB-overexposure evoked nocifensive behavior (sunburn model), topical treatment; assay type: in vivo, mouse; conditions: 0.5 mM in 40 μL
Protocol: Compounds were tested for their effect on nocifensive behavior (response to pain) following UVB overexposure. Behavioral tests were performed to evaluate the decrease in withdrawal thresholds in response to mechanical von Frey hair or thermal stimuli applied to hind paws. The Von-Frey apparatus (Ugo Basile) applied a mechanical stimulus with a flexible steel wire from underneath the hind paw. The force leading to withdrawal was determined. For the thermal stimuli test, paws were stimulated with heat from underneath applied by an infrared beam (Hargreave's test apparatus; Ugo Basile), and withdrawal latencies were recorded. The withdrawal thresholds were ascertained before and after UV exposure. Mice were exposed to UVB 3-5 days after the last application of tam/oil, using a Bio-Rad Gel Doc 2000 UV transilluminator (302 nm) for 5 min with an exposure of 600 mJ/cm^2. This represents 5-10 times the minimal erythema-inducing dose, in keeping with the rationale of inducing sunburn and studying sunburn-evoked pain.

Chain of TRPV4 (Q9HBA0 whole entry): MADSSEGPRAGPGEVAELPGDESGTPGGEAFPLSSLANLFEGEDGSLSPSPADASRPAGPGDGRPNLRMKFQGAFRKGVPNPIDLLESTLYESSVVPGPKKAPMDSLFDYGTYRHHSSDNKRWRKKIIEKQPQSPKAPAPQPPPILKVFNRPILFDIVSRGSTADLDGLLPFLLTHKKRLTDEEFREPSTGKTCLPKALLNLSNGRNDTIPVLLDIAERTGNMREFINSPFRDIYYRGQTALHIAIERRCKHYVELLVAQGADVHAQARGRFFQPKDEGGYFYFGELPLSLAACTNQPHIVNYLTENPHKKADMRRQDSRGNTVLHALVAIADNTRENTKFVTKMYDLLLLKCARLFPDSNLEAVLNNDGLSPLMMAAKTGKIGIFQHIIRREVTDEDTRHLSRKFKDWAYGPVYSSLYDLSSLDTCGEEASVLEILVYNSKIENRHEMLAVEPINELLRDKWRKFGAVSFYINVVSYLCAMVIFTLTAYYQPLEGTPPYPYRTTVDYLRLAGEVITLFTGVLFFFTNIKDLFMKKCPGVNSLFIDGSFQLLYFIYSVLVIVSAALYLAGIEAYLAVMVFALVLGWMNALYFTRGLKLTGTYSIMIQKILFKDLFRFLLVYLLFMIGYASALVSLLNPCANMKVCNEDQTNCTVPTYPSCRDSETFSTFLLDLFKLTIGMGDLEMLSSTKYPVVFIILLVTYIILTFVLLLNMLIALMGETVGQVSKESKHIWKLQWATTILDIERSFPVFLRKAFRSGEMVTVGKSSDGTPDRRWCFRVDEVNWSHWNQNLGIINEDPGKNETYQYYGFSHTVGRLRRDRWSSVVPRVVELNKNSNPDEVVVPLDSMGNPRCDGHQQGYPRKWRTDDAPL
T1 sequence (O75762 whole entry): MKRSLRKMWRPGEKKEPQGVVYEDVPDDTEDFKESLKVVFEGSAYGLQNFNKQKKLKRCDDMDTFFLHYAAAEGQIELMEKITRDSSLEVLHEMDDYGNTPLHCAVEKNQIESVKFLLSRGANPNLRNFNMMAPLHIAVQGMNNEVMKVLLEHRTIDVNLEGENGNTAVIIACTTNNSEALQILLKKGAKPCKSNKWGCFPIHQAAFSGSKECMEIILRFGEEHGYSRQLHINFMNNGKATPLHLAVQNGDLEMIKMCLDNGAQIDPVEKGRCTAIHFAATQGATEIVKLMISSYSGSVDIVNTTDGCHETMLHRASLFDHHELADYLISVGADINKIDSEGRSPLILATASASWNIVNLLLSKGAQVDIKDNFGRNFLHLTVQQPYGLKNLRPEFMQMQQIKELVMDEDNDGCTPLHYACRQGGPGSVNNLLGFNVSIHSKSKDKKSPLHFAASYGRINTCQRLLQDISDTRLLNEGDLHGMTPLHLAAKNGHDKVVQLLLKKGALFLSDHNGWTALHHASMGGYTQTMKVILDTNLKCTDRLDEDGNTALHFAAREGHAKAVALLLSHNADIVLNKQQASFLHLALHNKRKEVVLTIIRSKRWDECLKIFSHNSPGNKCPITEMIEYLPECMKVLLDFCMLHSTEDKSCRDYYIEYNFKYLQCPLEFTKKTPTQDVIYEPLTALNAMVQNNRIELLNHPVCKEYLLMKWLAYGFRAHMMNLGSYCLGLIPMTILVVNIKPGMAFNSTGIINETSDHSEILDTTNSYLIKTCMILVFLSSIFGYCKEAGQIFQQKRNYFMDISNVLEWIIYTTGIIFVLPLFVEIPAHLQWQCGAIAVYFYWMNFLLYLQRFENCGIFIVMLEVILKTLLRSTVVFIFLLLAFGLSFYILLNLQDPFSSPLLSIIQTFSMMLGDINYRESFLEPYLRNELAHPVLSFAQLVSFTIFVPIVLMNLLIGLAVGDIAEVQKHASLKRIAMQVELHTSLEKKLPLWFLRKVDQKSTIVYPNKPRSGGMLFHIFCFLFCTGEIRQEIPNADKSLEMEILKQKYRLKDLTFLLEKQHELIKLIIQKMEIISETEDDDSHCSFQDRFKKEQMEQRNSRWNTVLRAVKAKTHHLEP

CN(CCc1ccc(Nc2nc(-c3cccnc3)cs2)cc1)Cc1ccccc1 [GSK205]
inhibition of TRPV4-mediated calcium influx (peak calcium concentration in the cells) (TRPV4): very low potency | inhibition of TRPA1 activity (human TRPA1; doses below or equaling 25 μM): did not inhibit TRPA1 activity | formalin-evoked nocifensive behavior, time course (BL6 mice): not different from control | formalin-evoked nocifensive behavior, quantitation (in particular second phase) (BL6 mice): lack of effect | UVB-overexposure evoked nocifensive behavior (response to pain) (mice): as effective as vehicle

CN(CCc1ccc(Nc2nc(-c3ccccc3)cs2)cc1)Cc1ccccc1 [Compound 16-8]
inhibition of TRPV4-mediated calcium influx (peak calcium concentration in the cells) (TRPV4): most potent | inhibitory activity against human TRPA1 (human TRPA1): showed inhibitory activity | formalin-evoked nocifensive behavior at the 45-min time-point (BL6 mice): reduction to control levels | formalin-evoked nocifensive behavior, time course (BL6 mice): significantly attenuated nocifensive behavior | formalin-evoked nocifensive behavior, quantitation (in particular second phase) (BL6 mice): significant attenuation of nocifensive behavior | UVB-overexposure evoked nocifensive behavior (response to pain) (mice): especially effective in reducing the response to pain

CCN(CCc1ccc(Nc2nc(-c3ccccc3)cs2)cc1)Cc1ccccc1 [16-8/18hy]
inhibition of TRPV4-mediated calcium influx (peak calcium concentration in the cells) (TRPV4): did not show enhanced inhibition over 16-8 | inhibitory activity against human TRPA1 (human TRPA1): showed inhibitory activity | formalin-evoked nocifensive behavior at the 45-min time-point (BL6 mice): reversal to control levels | formalin-evoked nocifensive behavior, time course (BL6 mice): significantly attenuated nocifensive behavior | formalin-evoked nocifensive behavior, quantitation (in particular second phase) (BL6 mice): significant attenuation of nocifensive behavior
